Test in all cases: NCI-60 cell line screen, 48 h
For assay [1], the system named is HCT-15 colon.
The test system of assay [2] is BT-549 breast.
Assay [3] concerns SF-295 CNS.
The subject of assay [4] is HL-60(TB) leukemia.
Assay [5] has as its system MALME-3M melanoma.
The test system of assay [6] is NCI-H23 lung.
Assay [7] relates to T-47D breast.
The test system of assay [8] is HT29 colon.
Assay [9] deals with LOX IMVI melanoma.
In assay [10] the test system is KM12 colon.

The structures appear in SMILES notation.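 A five-concentration, 48-hour dose response in 96-well plates underlies each endpoint, interpolated linearly between surrounding concentrations. GI50 = concentration required for 50% inhibition of growth. TGI marks complete inhibition of growth.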

Turning to `CCOC(=O)N1C/C(=C/c2ccc(OC)cc2)C(=O)/C(=C/c2ccc(OC)cc2)C1`, the GI50 was 1.64 µM in assay [1]; 2.01 µM in [2]; 2.17 µM in assay [3]; 3.02 µM in assay [4]; 4.76 µM in [5]; 3.26 µM in [6]. For the same molecule, the GI50 in assay [7] is 3.79 µM; in assay [8], 0.79 µM; in assay [9], 0.979 µM; in [10], 0.946 µM. For the same molecule, the TGI is 4.91 µM in assay [1]; 4.47 µM in [2]; 5.81 µM in assay [3]; > 25.4 µM in assay [4]; > 33.9 µM in [5]; 20.2 µM in assay [6]. Moreover, the TGI in assay [7] was > 100 µM; in assay [8] it was 2.53 µM; in assay [9], 2.84 µM; in assay [10], 2.5 µM.
With `CCCCN(CCCC)CC(C)(C)C(O)c1ccc(OC)c2ccccc12` (stereo not drawn), the GI50 was 3.88 µM in assay [1]; 12.1 µM in [2]; 2.28 µM in [3]; 2.98 µM in [4]; 3.02 µM in [5]; 2.29 µM in assay [6]. Besides, the GI50 was 3.77 µM in [7], 0.875 µM in assay [8], 5.53 µM in assay [9] and 3.31 µM in [10]. The TGI in assay [1] is 16.5 µM; in [2], 30.3 µM; in assay [3], 17.8 µM; in assay [4] it was 15.8 µM; in [5], 16.6 µM; in [6], 9.36 µM. Besides, the TGI in assay [7] was found to be 17 µM; in [8], 13.4 µM; in assay [9] it was 19.4 µM; in assay [10], 16.5 µM.
In the case of `C=C1C(=O)O[C@H]2[C@H]1[C@H](OC(=O)/C(C)=C\C)C[C@]1(CO1)[C@@H]1[C@H](OC(C)=O)C=C(C)[C@]21O`, the TGI was 33.5 µM in assay [1]; 24.4 µM in [2]; > 100 µM in assay [3]; 12.9 µM in assay [4]; 35.3 µM in assay [5]; 53.2 µM in assay [6]. Besides, the TGI in [7] was determined as 36.5 µM; in assay [8] it was 30.4 µM; in assay [9], 29 µM; in assay [10], 41.4 µM.
As to `C=CC[Se]C(=O)Cc1c(C)n(C(=O)c2ccc(Cl)cc2)c2ccc(OC)cc12`, the GI50 was 1.84 µM in assay [1]; 1.59 µM in assay [2]; 0.334 µM in assay [3]; 2.26 µM in assay [4]; 1.71 µM in [5]; 1.91 µM in assay [6]. For the same molecule, the GI50 in [7] is 2.29 µM; in assay [8], 3.39 µM; in assay [9], 1.74 µM; in assay [10], 1.53 µM. The TGI is 3.87 µM in [1]; 3.01 µM in assay [2]; 1.45 µM in [3]; 5.56 µM in [4]; 3.45 µM in assay [5]; 3.87 µM in [6]. The TGI was 5.7 µM in assay [7], > 100 µM in assay [8], 3.34 µM in assay [9] and 3.42 µM in [10].
As for `O=C(O)c1ccc(-c2ccc(C(=O)O)cc2I)c(I)c1`, the GI50 in [1], in assay [2], in assay [3], in [4], in [5] and in assay [6] was > 100 µM each time. Further, the GI50 in [7], in [8], in [9] and in [10] was > 100 µM in each case. Moreover, the TGI in [1], in assay [2], in assay [3], in [4], in assay [5] and in assay [6] was > 100 µM throughout. In addition, the TGI in [7], in assay [8], in [9] and in assay [10] was > 100 µM in each case.
As for `COc1cc(C2CC(c3ccc4c(c3)OCO4)=NN2C(C)=O)cc(OC)c1OC` (stereo not drawn), the GI50 is 0.584 µM in assay [1]; 6.82 µM in assay [2]; 0.368 µM in assay [3]; 0.316 µM in [4]; 1.88 µM in assay [5]; 1.81 µM in [6]. Besides, the GI50 was 1.44 µM in assay [7], 0.378 µM in assay [8], 1.89 µM in [9] and 0.422 µM in assay [10]. Besides, the TGI in [1] was > 100 µM; in [2] it was > 100 µM; in [3], 4.51 µM; in assay [4], 2.92 µM; in [5] it was > 100 µM; in assay [6] it was > 100 µM. The TGI in assay [7] is > 64.8 µM; in assay [8] it was > 100 µM; in [9], > 100 µM; in [10] it was 52.9 µM.
As to `c1ccc2cc(OCC3CO3)c(OCC3CO3)cc2c1` (stereo not drawn), the TGI in assay [1] was 16.6 µM; in assay [2] it was 5.57 µM; in [3], 8.59 µM; in assay [4] it was 45.3 µM; in assay [5] it was 36.5 µM; in assay [6], 12.8 µM. In addition, the TGI came to 45.4 µM in [7], 20.1 µM in assay [8], 12 µM in assay [9] and 26.7 µM in [10].
With `C=C1CC2(OC1=O)c1ccccc1C=Cc1ccccc12`, the TGI is 7.77 µM in [1]; 3.61 µM in assay [2]; 32.1 µM in assay [3]; 4.86 µM in assay [4]; 9.71 µM in assay [5]; 14.7 µM in assay [6]. Further, the TGI in assay [7] was 4.37 µM; in assay [8] it was 6.8 µM; in [9] it was 4.1 µM; in assay [10], 12.3 µM.
Regarding `Oc1ccc(Br)cc1/C=N/NC(=S)NC12CC3CC(CC(C3)C1)C2`, the GI50 is 0.734 µM in assay [1]; 4.36 µM in assay [2]; 2.6 µM in assay [3]; 2.52 µM in assay [4]; 2.23 µM in assay [5]; 2.15 µM in [7]. Besides, the values for the GI50 in [8], in assay [9] and in assay [10] were 2.02 µM, 1.22 µM and 1.8 µM, respectively. For the same molecule, the TGI in assay [1] came to 3.49 µM; in assay [2] it was 15.7 µM; in assay [3] it was 7.89 µM; in assay [4], 6.5 µM; in [5], 6.26 µM; in [7] it was 8.33 µM. The TGI amounted to 3.93 µM in [8], 2.88 µM in [9] and 4.35 µM in assay [10].

(Values after PubChem BioAssay (NCI).)
